Details: 101.33 kPa, Liquid, Vibrating tube method

C[S+](C)[O-] [dimethyl sulfoxide]
Details	mass density [kg/m3]
293.15 K	1100.22
298.15 K	1095.19
303.15 K	1090.16
313.15 K	1080.12
323.15 K	1070.07
333.15 K	1060.03

Source: the NIST ThermoML archive (doi:10.1016/j.jct.2012.06.020)
